Counter-ions that a name gives are not always drawn.
How the values were obtained:
[1] = target: Hco-L-AChR-1 (Hco-UNC-38, Hco-UNC-63, Hco-UNC-29.1, Hco-ACR-8) (Haemonchus contortus, UniProt A9XX24+D6MYE9+D6MYF3+D6MYF4); assay: Two-electrode voltage-clamp on Xenopus oocytes expressing Hco-L-AChR-1; format: cell-based; details: for Response to agonist: 100 μM agonist
Text: H. contortus and P. equorum acr-26 and acr-27 cDNAs were PCR-amplified using primers containing a restriction site in order to be sub-cloned into the expression vector pTB207 that is suitable for in vitro transcription. Primers are listed in S3 Table. The resulting plasmids were linearized with the NheI restriction enzyme (Fermantas) and used as templates for cRNA synthesis using the T7 mMessage mMachine kit (Ambion). Xenopus laevis ovaries were obtained from the University of Rennes, France (CRB Xenope) and defolliculated using 2 mg/ml collagenase type II (Gibco) in the incubation solution containing: 100 mM NaCl, 2 mM KCl, 1.8 mM CaCl2.2H2O, 1 mM MgCl2.6H2O, 5 mM HEPES, 2.5 mM C3H3NaO3, pH 7.5, supplemented with penicillin 100 U/mL and streptomycin 100 μg/mL). The oocytes were injected in the animal pole with a total volume of 36 nL of cRNA mix containing 50 ng/μL of each cRNA in RNase-free water using the Drummond nanoject II microinjector. Microinjected oocytes were kept at 20°C in incubation medium for 4 days to allow the receptors expression. Two-electrode voltage-clamp recordings were carried out using an Oocyte Clamp OC-725C amplifier (Warner instrument) in oocytes being voltage-clamped at -60mV. All agonist preparations were prepared with recording buffer (100 mM NaCl, 2.5 mM KCl, 1 mM CaCl2.2H2O, 5 mM HEPES, pH 7.3). Currents were recorded and analyzed using the pCLAMP 10.4 package (Molecular Devices).
Supplementary file ppat.1005267.s003.tif: S3 Fig Pharmacological profiles of Hco-L-AChR-1 and Hco-L-AChR-2. […] The bars indicate the time period of the agonist application. Functional expression of Hco-L-AChR-1 requires the co-expression of Hco-UNC-38; Hco-UNC-63; Hco-UNC-29.1 and Hco-ACR-8 AChR subunits with the ancillary proteins Hco-RIC-3.1; Hco-UNC-50 and Hco-UNC-74 whereas Hco-L-AChR-2 requires the co-expression of Hco-UNC-38; Hco-UNC-63 and Hco-UNC-29.1 AChR subunits with the ancillary proteins Hco-RIC-3.1; Hco-UNC-50 and Hco-UNC-74. (C) Scatter plot (mean ± SEM) of normalized currents elicited by 100 μM Mor on Hco-26/27, Hco-L-AChR-1 and Hco-L-AChR-2. Currents have been normalized to and compared with 100 μM ACh elicited currents. Paired Student’s t-test, ***p<0.001. (D) Dose-response relationships of Hco-L-AChR-1 (black circle, n = 7) and Hco-L-AChR-2 (blue squares, n = 9) for Mor. Responses are normalized to 300 μM ACh elicited currents as described in Boulin et al.. […] (TIF) Click here for additional data file.

[2] = system: C. elegans expressing Peq-26/27; assay: Thrashing assay on transgenic C. elegans expressing Peq-26/27; format: in vivo, Caenorhabditis elegans
Text: Taking advantage of the absence of acr-26 and acr-27 homologs in the C. elegans genome, we used wild type N2 worms to express these two parasitic nematode AChR subunits. […] For Peq-ACR-26 and Peq-ACR-27, even though the localization of these subunits in Parascaris equorum remains to be investigated in more detail, we also used myo3 as a promoter in order to compare the functional impact of Hco-26/27 and Peq-26/27 on both motility and drug sensitivity in transgenic C. elegans.
Worms were maintained at 20°C on nematode growth medium (NGM) plates and fed on a bacterial lawn (Escherichia coli OP50). Bristol N2 was used as a reference wild-type C. elegans strain. Dose-response assays were performed on gravid adults placed in wells of a 96-well plate containing M9 salt solution (3 g/L KH2PO4, 6 g/L Na2HPO4, 5 g/L NaCl, and 1 mM MgSO4 with BSA at 0.1%) with varying anthelmintic concentrations. After 10 min, worm thrashing was counted for 1 min. A thrash was defined as a change in the direction of bending at the mid-body to return to the initial position. For each drug concentration, 30 worms were tested. Hco-acr-26, Hco-acr-27, Peq-acr-26 and Peq-acr-27 coding sequences were sub-cloned into the pPD96.52 (Addgene) vector containing the muscle promoter Pmyo3. Primer sequences containing the suitable restriction sites are listed in S3 Table. Extrachromosomal transgenic strains of C. elegans were obtained by micro-injecting DNA into the gonads of young adult hermaphrodite worms as described. N2 worms were injected with different mixes containing Pmyo3::Hco-acr-26; Pmyo3::Hco-acr-27; Pmyo3::Peq-acr-26; Pmyo3::Peq-acr-27 alone or in combination (Pmyo3::Hco-acr-26 + Pmyo3::Hco-acr-27 or Pmyo3::Peq-acr-26 + Pmyo3::Peq-acr-27) with a final concentration of 40 ng/μl for each plasmid. The plasmid pPD118.33_Pmyo2::gfp (Addgene) was co-injected at 25 ng/μl as a transformation marker. […] Thrashes produced by each worm during 1 minute were counted after a 10 minutes equilibration period. After drug application, thrashes were counted after 10, 20 and 30 minutes of exposure. […]

Hco-L-AChR-1 (Hco-UNC-38, Hco-UNC-63, Hco-UNC-29.1, Hco-ACR-8), sequence (D6MYF3 20-512): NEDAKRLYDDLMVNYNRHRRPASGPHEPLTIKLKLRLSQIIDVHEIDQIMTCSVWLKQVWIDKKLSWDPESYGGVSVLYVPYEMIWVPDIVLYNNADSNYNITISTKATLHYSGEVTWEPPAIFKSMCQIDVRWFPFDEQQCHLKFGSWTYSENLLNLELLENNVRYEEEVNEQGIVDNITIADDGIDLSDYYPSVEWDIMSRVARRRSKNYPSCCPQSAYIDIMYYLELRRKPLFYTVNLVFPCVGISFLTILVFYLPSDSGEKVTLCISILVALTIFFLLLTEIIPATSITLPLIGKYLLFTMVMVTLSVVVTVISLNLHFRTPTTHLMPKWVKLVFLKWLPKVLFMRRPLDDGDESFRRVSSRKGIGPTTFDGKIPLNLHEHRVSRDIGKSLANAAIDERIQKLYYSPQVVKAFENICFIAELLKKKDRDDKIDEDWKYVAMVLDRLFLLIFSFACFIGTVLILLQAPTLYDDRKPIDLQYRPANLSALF
Hco-L-AChR-1 (Hco-UNC-38, Hco-UNC-63, Hco-UNC-29.1, Hco-ACR-8), sequence (D6MYF4 22-504): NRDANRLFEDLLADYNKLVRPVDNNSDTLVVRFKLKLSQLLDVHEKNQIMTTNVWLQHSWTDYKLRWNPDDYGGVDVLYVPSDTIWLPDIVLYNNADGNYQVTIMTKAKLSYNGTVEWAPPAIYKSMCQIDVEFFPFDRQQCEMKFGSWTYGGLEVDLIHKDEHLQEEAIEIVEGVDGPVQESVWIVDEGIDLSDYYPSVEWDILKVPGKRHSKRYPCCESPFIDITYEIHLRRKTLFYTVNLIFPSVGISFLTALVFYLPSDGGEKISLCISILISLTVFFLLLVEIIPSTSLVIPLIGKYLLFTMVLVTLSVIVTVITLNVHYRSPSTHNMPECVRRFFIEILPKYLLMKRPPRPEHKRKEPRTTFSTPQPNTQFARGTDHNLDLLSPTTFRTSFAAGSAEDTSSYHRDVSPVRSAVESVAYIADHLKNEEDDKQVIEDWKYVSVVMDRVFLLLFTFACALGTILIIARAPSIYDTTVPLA
Hco-L-AChR-1 (Hco-UNC-38, Hco-UNC-63, Hco-UNC-29.1, Hco-ACR-8), sequence (D6MYE9 21-498): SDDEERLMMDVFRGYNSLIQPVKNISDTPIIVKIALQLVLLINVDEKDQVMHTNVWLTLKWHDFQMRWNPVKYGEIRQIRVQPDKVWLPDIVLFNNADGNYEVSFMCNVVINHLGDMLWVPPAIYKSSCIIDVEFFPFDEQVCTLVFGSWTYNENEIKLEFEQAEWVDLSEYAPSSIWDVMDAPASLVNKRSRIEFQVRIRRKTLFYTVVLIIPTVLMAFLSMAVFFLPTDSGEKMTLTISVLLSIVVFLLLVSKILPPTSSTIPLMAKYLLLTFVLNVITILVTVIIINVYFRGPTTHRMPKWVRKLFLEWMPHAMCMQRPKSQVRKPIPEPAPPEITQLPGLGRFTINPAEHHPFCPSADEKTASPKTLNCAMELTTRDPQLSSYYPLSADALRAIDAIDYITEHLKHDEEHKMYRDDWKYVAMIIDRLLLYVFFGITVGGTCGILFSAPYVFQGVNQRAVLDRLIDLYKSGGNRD
Hco-L-AChR-1 (Hco-UNC-38, Hco-UNC-63, Hco-UNC-29.1, Hco-ACR-8), sequence (A9XX24 19-536): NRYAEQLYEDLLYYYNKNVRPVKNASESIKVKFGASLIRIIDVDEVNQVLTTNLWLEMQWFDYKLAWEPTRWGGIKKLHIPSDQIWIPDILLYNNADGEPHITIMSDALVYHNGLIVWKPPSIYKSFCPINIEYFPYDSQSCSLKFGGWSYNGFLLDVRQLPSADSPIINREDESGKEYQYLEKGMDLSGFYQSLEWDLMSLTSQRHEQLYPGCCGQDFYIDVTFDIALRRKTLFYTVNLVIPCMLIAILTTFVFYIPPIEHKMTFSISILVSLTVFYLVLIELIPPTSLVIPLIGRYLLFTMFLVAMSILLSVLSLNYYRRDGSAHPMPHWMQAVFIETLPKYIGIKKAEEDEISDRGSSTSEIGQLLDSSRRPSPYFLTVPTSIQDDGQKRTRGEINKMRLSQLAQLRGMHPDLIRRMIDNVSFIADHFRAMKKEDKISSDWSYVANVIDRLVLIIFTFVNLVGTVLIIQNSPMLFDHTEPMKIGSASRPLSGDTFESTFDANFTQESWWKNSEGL

c1ccc([C@H]2CN3CCSC3=N2)cc1 [Lev, (-)-tetramisole hydrochloride]
Response to agonist [1]: very responsive | Change in sensitivity versus N2 ([2]; 5 μM Lev): no significant change

Cc1ccsc1/C=C/C1=NCCCN1C [Mor, morantel]
Concentrations with potential channel-block effect [1]: above 30 μM | EC50 [1]: 410 ± 230 nM | Response to agonist [1]: weak response | Reduction of thrashing motility ([2]; 40 μM Mor, 10 minutes exposure): 62.7%

CN1CCCN=C1/C=C/c1cccs1 [Pyr, pyrantel]
Percentage reduction of thrashes min^-1 ([2]; 50 μM Pyr, 10 minutes of drug exposure): 61.6%

Source: paper PMC4666645 (PLoS Pathogens, 2015)
